Data as given in patent US10934310B2, “Inhibitors of Bruton's tyrosine kinase and method of their use” (JANSSEN PHARMACEUTICA NV, priority 2015, dated 2021).

molecular target: unphosphorylated-BTK kinase domain (UP-BTK), GST-tagged human BTK (389-659aa) (Homo sapiens (Human), UniProt Q06187); assay: BTK Kinase Lanthascreen Binding Assay; conditions: Lanthascreen binding, 60 minutes incubation; pIC50 = negative log of the IC50 in molar
Procedure: BTK Kinase Lanthascreen Binding Assay:
A BTK kinase lanthascreen binding assay monitors compound binding to unphosphorylated-BTK kinase domain (UP-BTK), by competing with a fluorescent labeled tracer. […] Data were analyzed using Xlfit™ version 5.3 from ID Business Solutions (Guildford), Microsoft Excel add-in. pIC50 refers to the negative log of the IC50 in molar.

Sequence of unphosphorylated-BTK kinase domain (UP-BTK), GST-tagged human BTK (389-659aa) (Q06187 389-659): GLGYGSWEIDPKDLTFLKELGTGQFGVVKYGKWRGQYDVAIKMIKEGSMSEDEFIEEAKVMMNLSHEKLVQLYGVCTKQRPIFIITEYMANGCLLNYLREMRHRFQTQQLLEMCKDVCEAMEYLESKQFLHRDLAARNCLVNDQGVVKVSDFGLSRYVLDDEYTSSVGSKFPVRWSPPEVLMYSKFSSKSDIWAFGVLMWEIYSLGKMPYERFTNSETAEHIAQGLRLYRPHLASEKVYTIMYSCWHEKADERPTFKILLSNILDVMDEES

First: C=CC(=O)N[C@H]1CCC[C@H]1NC(=O)c1sc2nccc3c2c1NC(=O)N3c1ccc(Oc2ccc(C)nc2)cc1C [Example 384, N-((1R,2S)-2-Acrylamidocyclopentyl)-5-(2-methyl-4-((6-methylpyridin-3-yl)oxy)phenyl)-4-oxo-4,5-dihydro-3H-1-thia-3,5,8-triazaacenaphthylene-2-carboxamide]
Second: C=CC(=O)N[C@H]1CCCC[C@H]1NC(=O)c1sc2nccc3c2c1NC(=O)N3c1ccc(Oc2ccccn2)cc1C [Example 401, N-((1R,2S)-2-Acrylamidocyclohexyl)-5-(2-methyl-4-(pyridin-2-yloxy)phenyl)-4-oxo-4,5-dihydro-3H-1-thia-3,5,8-triazaacenaphthylene-2-carboxamide]
The “BTK_I_binding pIC50” value of the first is higher: 7.54 for the first, 6.39 for the second.

Going from C=CC(=O)N[C@H]1CCC[C@H]1NC(=O)c1sc2nccc3c2c1NC(=O)N3c1ccc(O[C@@H]2CCOC2)cc1C [Example 386, N-((1R,2S)-2-Acrylamidocyclopentyl)-5-(2-methyl-4-(((R)-tetrahydrofuran-3-yl)oxy)phenyl)-4-oxo-4,5-dihydro-3H-1-thia-3,5,8-triazaacenaphthylene-2-carboxamide] to C=CC(=O)N[C@H]1CCCC[C@H]1NC(=O)c1sc2nccc3c2c1NC(=O)N3c1ccc(Oc2cccnn2)cc1C [Example 406, N-((1R,2S)-2-Acrylamidocyclohexyl)-5-(2-methyl-4-(pyridazin-3-yloxy)phenyl)-4-oxo-4,5-dihydro-3H-1-thia-3,5,8-triazaacenaphthylene-2-carboxamide], the “BTK_I_binding pIC50” value falls from 7.09 to 6.13.

Compared with C=CC(=O)N[C@H]1CCC[C@H]1NC(=O)c1sc2nccc3c2c1NC(=O)N3c1ccc(Oc2cccnn2)cc1 [Example 387, N-((1R,2S)-2-Acrylamidocyclopentyl)-4-oxo-5-(4-(pyridazin-3-yloxy)phenyl)-4,5-dihydro-3H-1-thia-3,5,8-triazaacenaphthylene-2-carboxamide], C=CC(=O)N[C@H]1CCC[C@H]1NC(=O)c1sc2nccc3c2c1NC(=O)N3c1ccc(Oc2ccccn2)cc1 [Example 437, N-((1R,2S)-2-Acrylamidocyclopentyl)-4-oxo-5-(4-(pyridin-2-yloxy)phenyl)-4,5-dihydro-3H-1-thia-3,5,8-triazaacenaphthylene-2-carboxamide] is higher in “BTK_I_binding pIC50” value: 7.16 for the first, 8.38 for the second.

O=C(N[C@@H]1CCC[C@H]1O)c1sc2nccc3c2c1NC(=O)N3c1ccc(Oc2ccccc2)cc1 [Example 393, N-((1R,2R)-2-Hydroxycyclopentyl)-4-oxo-5-(4-phenoxyphenyl)-4,5-dihydro-3H-1-thia-3,5,8-triazaacenaphthylene-2-carboxamide] and CC(=O)N[C@H]1CCC[C@H]1NC(=O)c1sc2nccc3c2c1NC(=O)N3c1ccc(Oc2ccccc2)cc1 [Example 396, N-((1R,2S)-2-Acetamidocyclopentyl)-4-oxo-5-(4-phenoxyphenyl)-4,5-dihydro-3H-1-thia-3,5,8-triazaacenaphthylene-2-carboxamide] are within 0.2 log units of each other in “BTK_I_binding pIC50” value: 6.74 for the first, 6.66 for the second.

Compared with CCC(=O)N[C@H]1CCC[C@H]1NC(=O)c1sc2nccc3c2c1NC(=O)N3c1ccc(Oc2ccccc2)cc1 [Example 398, 4-Oxo-5-(4-phenoxyphenyl)-N-((1R,2S)-2-propionamidocyclopentyl)-4,5-dihydro-3H-1-thia-3,5,8-triazaacenaphthylene-2-carboxamide], CCC(=O)N[C@H]1CCN(C(=O)c2sc3nccc4c3c2NC(=O)N4c2ccc(Oc3ccccc3)cc2C)C1 [Example 418, (S)—N-(1-(5-(2-Methyl-4-phenoxyphenyl)-4-oxo-4,5-dihydro-3H-1-thia-3,5,8-triazaacenaphthylene-2-carbonyl)pyrrolidin-3-yl)propionamide] is lower in “BTK_I_binding pIC50” value: 6.56 for the first, 5.80 for the second.

CN[C@H]1CCN(C(=O)c2sc3nccc4c3c2NC(=O)N4c2ccc(Oc3ccccc3)cc2C)C1 [Example 417, (S)-5-(2-Methyl-4-phenoxyphenyl)-2-(3-(methylamino)pyrrolidine-1-carbonyl)-3H-1-thia-3,5,8-triazaacenaphthylen-4(5H)-one] and CC(=O)N[C@H]1CCN(C(=O)c2sc3nccc4c3c2NC(=O)N4c2ccc(Oc3ccccc3)cc2C)C1 [Example 419, (S)—N-(1-(5-(2-Methyl-4-phenoxyphenyl)-4-oxo-4,5-dihydro-3H-1-thia-3,5,8-triazaacenaphthylene-2-carbonyl)pyrrolidin-3-yl)acetamide] are within 0.2 log units of each other in “BTK_I_binding pIC50” value: 5.89 for the first, 5.79 for the second.

Cc1cc(Oc2ccccc2)ccc1N1C(=O)Nc2c(C(=O)N3CC[C@H](N)C3)sc3nccc1c23 [Example 420, (S)-2-(3-Aminopyrrolidine-1-carbonyl)-5-(2-methyl-4-phenoxyphenyl)-3H-1-thia-3,5,8-triazaacenaphthylen-4(5H)-one] and Cc1cc(Oc2ccccc2)ccc1N1C(=O)Nc2c(C(=O)N3CC[C@H](N(C)C)C3)sc3nccc1c23 [Example 421, (S)-2-(3-(Dimethylamino)pyrrolidine-1-carbonyl)-5-(2-methyl-4-phenoxyphenyl)-3H-1-thia-3,5,8-triazaacenaphthylen-4(5H)-one] are within 0.2 log units of each other in “BTK_I_binding pIC50” value: 5.73 for the first, 5.66 for the second.

First: CC(=O)N[C@H]1CC[C@H](NC(=O)c2sc3nccc4c3c2NC(=O)N4c2cnc(Oc3ccccc3)cc2C)CC1 [Example 432, N-((1r,4r)-4-Acetamidocyclohexyl)-5-(*S)-(4-methyl-6-phenoxypyridin-3-yl)-4-oxo-4,5-dihydro-3H-1-thia-3,5,8-triazaacenaphthylene-2-carboxamide]
Second: C=CC(=O)N[C@H]1CCN(C(=O)c2sc3nccc4c3c2NC(=O)N4c2ccc(Oc3ccccc3)cc2C)C1 [Example 433, (S)—N-(1-(5-(2-Methyl-4-phenoxyphenyl)-4-oxo-4,5-dihydro-3H-1-thia-3,5,8-triazaacenaphthylene-2-carbonyl)pyrrolidin-3-yl)acrylamide]
The “BTK_I_binding pIC50” value of the first is higher: 7.45 for the first, 7.01 for the second.

C=CC(=O)N[C@@H]1CCN(C(=O)c2sc3nccc4c3c2NC(=O)N4c2ccc(Oc3ccccc3)cc2C)C1 [Example 434, (R)—N-(1-(5-(2-Methyl-4-phenoxyphenyl)-4-oxo-4,5-dihydro-3H-1-thia-3,5,8-triazaacenaphthylene-2-carbonyl)pyrrolidin-3-yl)acrylamide] and Cc1cc(Oc2ccccc2)ccc1N1C(=O)Nc2c(C(=O)N3CC[C@H](NC(=O)/C(C#N)=C/C4CC4)C3)sc3nccc1c23 [Example 435, (S,E)-2-Cyano-3-cyclopropyl-N-(1-(5-(2-methyl-4-phenoxyphenyl)-4-oxo-4,5-dihydro-3H-1-thia-3,5,8-triazaacenaphthylene-2-carbonyl)pyrrolidin-3-yl)acrylamide] are within 0.2 log units of each other in “BTK_I_binding pIC50” value: 6.29 for the first, 6.15 for the second.

Cc1cc(Oc2ccccc2)ccc1N1C(=O)Nc2c(C(=O)N3CC[C@@H](NC(=O)/C(C#N)=C/C4CC4)C3)sc3nccc1c23 [Example 436, (R,E)-2-Cyano-3-cyclopropyl-N-(1-(5-(2-methyl-4-phenoxyphenyl)-4-oxo-4,5-dihydro-3H-1-thia-3,5,8-triazaacenaphthylene-2-carbonyl)pyrrolidin-3-yl)acrylamide] was tested, and the “BTK_I_binding pIC50” value was 6.09.

same assay, conditions: read-out: BTK_I_binding pIC50 (converted)

In the case of C=CC(=O)N[C@H]1CCCC[C@H]1NC(=O)c1sc2nccc3c2c1NC(=O)N3c1ccc(Oc2cccnn2)cc1 [Example 408, N-((1R,2S)-2-Acrylamidocyclohexyl)-4-oxo-5-(4-(pyridazin-3-yloxy)phenyl)-4,5-dihydro-3H-1-thia-3,5,8-triazaacenaphthylene-2-carboxamide], the IC50 is reported as > 1 µM.
